This is an account of results in patent US20240254138A1, “TRICYCLIC PYRIMIDINES AS CYCLIN-DEPENDENT KINASE 7 (CDK7) INHIBITORS” (JANSSEN PHARMACEUTICA NV, priority 2021, published 2024).

By kinact is commonly meant the rate constant of inactivation at saturating inhibitor.

Read-outs that look alike come from different tables or passages of the source.

Test [1] has as its target CDK7/cyclinH/MAT1 trimeric complex (Homo sapiens, UniProt P50613). As to the kind of experiment: In vitro CDK7 assay, potency of irreversible covalent inhibitors (kinact/KI), coupled PK/LDH ADP readout at 340 nm. To be noted: for Ki: CDK7 (20 nM enz.) (KI, μM); for kinact: read-out: CDK7 (20 nM enz.) (kinact, s^−1), 20 nM enzyme.
Test [2] concerns RNA Polymerase II Serine 5 phosphorylation (Rpb1 CTD, downstream substrate of CDK7) in A549 cells. As to the kind of experiment: Imaging-based cellular RNA PolII Ser5 phosphorylation assay in A549 cells. The class given is cell-based, human. The settings on record: wild-type CDK7, RNA PolII Ser5 phosphorylation, averaged over all measurements; for IC50: Homo sapiens, A549, A549 cells, read-out: CDK7_A549 Wild-type CDK7 (pIC50) (converted). The method in brief: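 A549 cells, seeded 1000/well in DMEM with 1% FBS and cultured 20 h, were treated with compound for 3 h at 37 °C. Ser5-phospho-Rpb1 CTD detected by immunofluorescence imaging after fixation and methanol permeabilization; IC50 from curve fit normalized to DMSO and 10 μM reference-compound controls.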

Test [3] has as its system RNA Polymerase II Serine 5 phosphorylation in A549 cells overexpressing CDK7-mutant (C312S). As to the kind of experiment: Imaging-based cellular RNA PolII Ser5 phosphorylation assay in A549 cells overexpressing CDK7-mutant (C312S). To be noted: RNA PolII Ser5 phosphorylation, averaged over all measurements; for IC50: Homo sapiens, A549, A549 cells overexpressing CDK7-mutant (C312S), read-out: CDK7_A549 mutant hCDK7(pIC50) (converted). In kind it is cell-based, human. In outline:
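A549 cells overexpressing CDK7 C312S (with endogenous wild-type CDK7) were treated with compound for 3 h at 37 °C in 1% FBS medium. Phospho-Rpb1 CTD Ser5 was immunostained after fixation and imaged. IC50 came from curve fit of % control, normalised to DMSO and 10 μM reference-compound controls.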

Where [4] appears, read: read-out: CDK7 (20 nM enz.) (kinact/KI, M^−1*s^−1), 20 nM enzyme.
[5] abbreviates: read-out: CDK7 (20 nM enz.) (kobs/[I], M^−1*s^−1), 20 nM enzyme.

CDK7/cyclinH/MAT1 trimeric complex, sequence (P50613 whole entry): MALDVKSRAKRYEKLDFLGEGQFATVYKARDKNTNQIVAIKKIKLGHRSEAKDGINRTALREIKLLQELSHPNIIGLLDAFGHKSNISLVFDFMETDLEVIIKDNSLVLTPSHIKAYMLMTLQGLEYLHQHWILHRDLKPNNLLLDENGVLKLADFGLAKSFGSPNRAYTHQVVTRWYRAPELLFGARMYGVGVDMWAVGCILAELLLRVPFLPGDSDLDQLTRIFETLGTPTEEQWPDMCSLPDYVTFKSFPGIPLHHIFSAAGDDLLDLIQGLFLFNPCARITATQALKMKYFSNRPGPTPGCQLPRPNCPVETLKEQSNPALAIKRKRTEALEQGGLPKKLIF
CDK7/cyclinH/MAT1 trimeric complex, sequence (P51946 whole entry partner): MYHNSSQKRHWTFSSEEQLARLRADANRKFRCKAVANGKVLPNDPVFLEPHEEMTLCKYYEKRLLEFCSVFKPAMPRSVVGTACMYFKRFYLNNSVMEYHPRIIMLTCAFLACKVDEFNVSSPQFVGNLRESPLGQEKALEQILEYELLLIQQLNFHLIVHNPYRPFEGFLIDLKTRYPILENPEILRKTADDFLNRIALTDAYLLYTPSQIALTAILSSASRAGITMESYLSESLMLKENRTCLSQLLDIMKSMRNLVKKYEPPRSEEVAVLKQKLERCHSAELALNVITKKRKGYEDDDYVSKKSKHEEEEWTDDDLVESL
CDK7/cyclinH/MAT1 trimeric complex, sequence (P51948 whole entry partner): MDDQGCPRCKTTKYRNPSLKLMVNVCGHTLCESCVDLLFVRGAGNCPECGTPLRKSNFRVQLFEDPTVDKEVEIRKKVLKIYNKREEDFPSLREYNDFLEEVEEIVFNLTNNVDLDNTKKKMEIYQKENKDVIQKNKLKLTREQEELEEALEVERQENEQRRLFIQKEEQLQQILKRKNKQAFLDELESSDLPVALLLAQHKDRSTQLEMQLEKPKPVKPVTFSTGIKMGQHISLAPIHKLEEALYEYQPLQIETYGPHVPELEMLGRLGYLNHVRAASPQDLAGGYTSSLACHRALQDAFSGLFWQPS

In the case of `CC#CC(=O)N1CC(N2CCC(c3cc4c(c(C)n3)OCc3c(N5CCOCC5)ccnc3N4)N(C)CC2)C1` (centres unmarked) [Compound 373], the Ki in test [1] (20 nM enzyme) is 0.113 µM. Further, the kinact in test [1] was 1.66e-05 s⁻¹. Also, in test [1] (setting [4]), the kinact/KI worked out at 147 M⁻¹ s⁻¹. Also, the IC50 is 269 nM in test [2] and greater than 10000 nM in test [3].
In the same order, the values of `C=CC(=O)N1CCC(n2cc(-c3cc(C)c4c(c3)Nc3nccc(N5CCOCC5)c3CO4)cn2)CC1` [Compound 379] are 0.0333 µM, 1.58e-05 s⁻¹, 475 M⁻¹ s⁻¹, 224 nM and 7080 nM.
The matching figures for `CC#CC(=O)N1CC(n2cc(-c3cc4c(c(C)n3)OC(C)c3c(N5CCOCC5)ccnc3N4)cn2)C1` (centres unmarked) [Compound 380]: 0.241 µM, 4.27e-05 s⁻¹, 177 M⁻¹ s⁻¹, 162 nM and greater than 10000 nM.
The matching figures for `C=CC(=O)N1CCC(N2CCN(c3ccc4c(c3)Nc3nccc(N5CCOCC5)c3CO4)CC2)CC1` [Compound 382]: 3.26 µM, 4.7e-05 s⁻¹, 14.4 M⁻¹ s⁻¹, 204 nM and greater than 10000 nM.
`C=CC(=O)N1CCC(N2CC(c3cc4c(c(C#N)n3)OCc3c(N5CCOCC5)ccnc3N4)C2)CC1` [Compound 384] registered a Ki in test [1] (20 nM enzyme) of 0.03 µM. Also, the kinact in test [1] is 7.49e-06 s⁻¹. Moreover, in test [1] (setting [4]), the kinact/KI stood at 249 M⁻¹ s⁻¹. In addition, the IC50 in test [2] was 355 nM; in test [3], 5130 nM.
In the same order, the values of `CC#CC(=O)N1CCC(N2CC(c3cc4c(c(C#N)n3)OCc3c(N5CCOCC5)ccnc3N4)C2)CC1` [Compound 385] are 0.0211 µM, 1.2e-05 s⁻¹, 570 M⁻¹ s⁻¹, 158 nM and 4270 nM.
In the same order, the values of `C=CC(=O)N1CCC(N2CCN(c3cc4c(c(C)n3)OCc3c(N5CCOCC5)ccnc3N4)CC2)CC1` [Compound 389] are 0.0199 µM, 2.13e-05 s⁻¹, 1070 M⁻¹ s⁻¹, 141 nM and greater than 10000 nM.
On to `C=CC(=O)N1CCN(C2CCN(c3cc4c(c(C)n3)OCc3c(N5CCOCC5)ccnc3N4)CC2)CC1` [Compound 391], for which the Ki in test [1] (20 nM enzyme) was found to be 0.0205 µM. Moreover, the kinact in test [1] amounted to 2.25e-05 s⁻¹. Further, in test [1] (setting [4]), the kinact/KI worked out at 1100 M⁻¹ s⁻¹. For the same compound, the IC50 was roughly 61.7 nM in test [2] and greater than 10000 nM in test [3].
The compound `CC#CC(=O)N1CCC(N2CCN(c3cc4c(c(C)n3)OCc3c(N5CCOCC5)ccnc3N4)CC2)CC1` [Compound 393] returned a Ki in test [1] (20 nM enzyme) of 0.0477 µM. Also, in test [1], the kinact was determined as 2.18e-05 s⁻¹. Also, the kinact/KI in test [1] (setting [4]) was determined as 457 M⁻¹ s⁻¹. The figures for the IC50 in test [2] and in test [3] were 105 nM and greater than 10000 nM, respectively.
The matching figures for `CC#CC(=O)N1CCN(C2CN(c3cc4c(c(C)n3)OCc3c(N5CCOCC5)ccnc3N4)C2)CC1` [Compound 394]: 0.313 µM, 1.25e-05 s⁻¹, 39.9 M⁻¹ s⁻¹, 339 nM and greater than 10000 nM.
In the same order, the values of `CC#CC(=O)N1CCN(C2CCN(c3cc4c(c(C)n3)OCc3c(N5CCOCC5)ccnc3N4)CC2)CC1` [Compound 396] are 0.0643 µM, 5.18e-05 s⁻¹, 807 M⁻¹ s⁻¹, 93.3 nM and greater than 10000 nM.
The matching figures for `CC#CC(=O)N1CCC(n2cc(-c3cc4c(c(C)n3)OCc3c(N5CCOCC5)ccnc3N4)cn2)CC1` [Compound 399]: 0.0839 µM, 6.61e-06 s⁻¹, 78.8 M⁻¹ s⁻¹, 447 nM and greater than 10000 nM.
On to `CC#CC(=O)N1CC(N2CCC(c3cc4c(c(C5CC5)n3)OCc3c(C5CCOCC5)ccnc3N4)CC2)C1` [Compound 400], for which the Ki in test [1] (20 nM enzyme) is 0.0914 µM. The kinact in test [1] was 5.02e-05 s⁻¹. Besides, the kinact/KI in test [1] (setting [4]) came to 549 M⁻¹ s⁻¹. Besides, the figures for the IC50 in test [2] and in test [3] were 105 nM and greater than 10000 nM, respectively.
The matching figures for `CC#CC(=O)N1CC(N2CCC(c3cc4c(c(C)n3)OCc3c(C5CCOCC5)ccnc3N4)CC2)C1` [Compound 410]: 0.203 µM, 6.11e-05 s⁻¹, 300 M⁻¹ s⁻¹, 174 nM and greater than 10000 nM.
Take `CC#CC(=O)N1CCC(n2ccc(-c3cc4c(c(C)n3)OCc3c(N5CCOCC5)ccnc3N4)cc2=O)CC1` [Compound 414]: in test [1] (20 nM enzyme), the Ki was 0.0611 µM. In test [1], the kinact amounted to 4.36e-05 s⁻¹. The kinact/KI in test [1] (setting [4]) worked out at 714 M⁻¹ s⁻¹. Moreover, the IC50 in test [2] was 251 nM; in test [3], greater than 10000 nM.
The matching figures for `CC#CC(=O)N1CC(n2cc(-c3cc(C#N)c4c(c3)Nc3nccc(N5CCOCC5)c3C(C)O4)cn2)C1` (centres unmarked) [Compound 417]: 0.0223 µM, 1.51e-05 s⁻¹, 678 M⁻¹ s⁻¹, 58.9 nM and 2950 nM.
As to `COC(=O)/C=C/C(=O)N1CC(N2CCC(c3cc4c(c(C)n3)OCc3c(-c5cnn(C)c5)ccnc3N4)CC2)C1` [Compound 431], the kinact/KI in test [1] (setting [5]) is 1170 M⁻¹ s⁻¹. Moreover, the IC50 was 55 nM in test [2] and greater than 10000 nM in test [3].
For the compound `CCOC(=O)/C=C/C(=O)N1CC(N2CCC(c3cc4c(c(C)n3)OCc3c(-c5cnn(C)c5)ccnc3N4)CC2)C1` [Compound 435], the kinact/KI in test [1] (setting [5]) is 856 M⁻¹ s⁻¹. For the same compound, the IC50 in test [2] is 69.2 nM; in test [3] it was greater than 10000 nM.
The compound `Cc1nc(C2CCN(C3CN(C(=O)/C=C/C(=O)OC(C)C)C3)CC2)cc2c1OCc1c(-c3cnn(C)c3)ccnc1N2` [Compound 436] yielded a Ki in test [1] (20 nM enzyme) of 0.311 µM. Also, in test [1], the kinact came out at 4.3e-05 s⁻¹. In test [1] (setting [4]), the kinact/KI came to 138 M⁻¹ s⁻¹. Moreover, the IC50 is 575 nM in test [2] and greater than 10000 nM in test [3].
`C=CC(=O)N1CCC(C2CN(c3cc4c(c(C)n3)OCc3c(N5CCOCC5)ccnc3N4)C2)CC1` [Compound 439] showed a Ki in test [1] (20 nM enzyme) of 0.401 µM. In addition, the kinact in test [1] stood at 1.01e-05 s⁻¹. In test [1] (setting [4]), the kinact/KI worked out at 25.2 M⁻¹ s⁻¹. Moreover, the IC50 is 1100 nM in test [2] and greater than 10000 nM in test [3].
As for `C=CC(=O)N1CCC(N2CC(c3cc4c(c(C(F)(F)F)n3)OCc3c(N5CCOCC5)ccnc3N4)C2)CC1` [Compound 453], in test [1] (20 nM enzyme), the “CDK7 (20 nM enz.) (kinact, s^−1)” value stood at 3.153e-05 s⁻¹; the “CDK7 (20 nM enz.) (kinact/KI, M^−1*s^−1)” value is 439.69 M⁻¹ s⁻¹; the Ki turned out to be 0.0717 µM. The “CDK7_A549 Wild-type CDK7 (pIC50)” value in test [2] (A549 cells) came to 7.13. Further, in test [3] (A549 cells overexpressing CDK7-mutant (C312S)), the “CDK7_A549 mutant hCDK7(pIC50)” value is 5.54.
Turning to `C=CC(=O)N1CCC(N2CCC(c3cc4c(c(C)n3)OCc3c(N5CCOCC5)ccnc3N4)CC2=O)CC1` (centres unmarked) [Compound 476], the Ki in test [1] (20 nM enzyme) was found to be 0.236 µM. Further, the kinact in test [1] is 2.18e-05 s⁻¹. Further, the kinact/KI in test [1] (setting [4]) was found to be 92.5 M⁻¹ s⁻¹. The IC50 in test [2] was 550 nM; in test [3], greater than 10000 nM.
For the compound `CC#CC(=O)N1CCC(N2CCC(c3cc4c(c(C)n3)OCc3c(N5CCOCC5)ccnc3N4)CC2=O)CC1` (centres unmarked) [Compound 484], the kinact/KI in test [1] (setting [4]) worked out at 289 M⁻¹ s⁻¹. Moreover, the IC50 in test [2] was 141 nM; in test [3], greater than 10000 nM.
The matching figures for `CC#CC(=O)N1CCC(N2CC(c3cc4c(c(C(F)(F)F)n3)OCc3c(N5CCOCC5)ccnc3N4)C2)CC1` [Compound 490]: 473 M⁻¹ s⁻¹, 74.1 nM and 3310 nM.
On to `C=C(C(=O)N1CC(N2CCC(c3cc4c(c(C)n3)OCc3c(N5CCOCC5)ccnc3N4)CC2)C1)n1cccn1` [Compound 496], for which, in test [1] (setting [5]), the kinact/KI was 680 M⁻¹ s⁻¹. Moreover, the figures for the IC50 in test [2] and in test [3] were 14.1 nM and 7240 nM, respectively.
For the compound `CC#CC(=O)N1CCC(N2CC(c3cc4c(c(C#N)n3)OCc3c(-c5cnn(C)c5)ccnc3N4)C2)C1` (centres unmarked) [Compound 529], the Ki in test [1] (20 nM enzyme) amounted to 0.0408 µM. The kinact in test [1] came to 1.66e-05 s⁻¹. Besides, the kinact/KI in test [1] (setting [4]) came to 409 M⁻¹ s⁻¹. In addition, the IC50 is 1740 nM in test [2] and greater than 10000 nM in test [3].
The matching figures for `Cc1nc(C2CN(C3CCN(C(=O)/C=C/CN(C)C)CC3)C2)cc2c1OCc1c(-c3cnn(C)c3)ccnc1N2` [Compound 532]: 0.0823 µM, 1.52e-05 s⁻¹, 184 M⁻¹ s⁻¹, 427 nM and 10200 nM.
On to `C=C(C)C(=O)N1CC(N2CCC(c3cc4c(c(C)n3)OCc3c(-c5cnn(C)c5)ccnc3N4)CC2)C1` [Compound 536], for which the Ki in test [1] (20 nM enzyme) turned out to be 6.8 µM. The IC50 in test [2] and in test [3] was greater than 10000 nM throughout.
In turn, `C=C(F)C(=O)N1CC(N2CCC(c3cc4c(c(C)n3)OCc3c(-c5cnn(C)c5)ccnc3N4)CC2)C1` [Compound 539] gave a Ki in test [1] (20 nM enzyme) of 0.0196 µM. The IC50 in test [2] was 1320 nM; in test [3] it was greater than 10000 nM.
